Measurements: ChEMBL document CHEMBL1153777, “Substituted benzothiadizine inhibitors of Hepatitis C virus polymerase” (Bioorg Med Chem Lett, 2009)
pIC50: −log10 of the molar value.

What was measured:
Hepatitis C virus [1] = assay: Antiviral activity against HCV 1b after 72 hrs by replicon assay in presence of HSA and AAG; assay type: functional, organism-based, Hepacivirus hominis; settings: genotype 1b
Hepatitis C virus [2] = assay: Inhibition of HCV1b Cdelta-21-truncated NS5B by enzymatic assay; assay type: functional, Hepatitis C virus subtype 1b
Hepatitis C virus [3] = assay: Antiviral activity against HCV 1b after 72 hrs by replicon assay; assay type: functional, organism-based, Hepacivirus hominis; settings: genotype 1b
Cytochrome P450 2C9 = Cytochrome P450 2C9 (Homo sapiens, UniProt P11712); assay: Inhibition of CYP2C9; assay type: ADME
Cytochrome P450 2C9, sequence (P11712 whole entry): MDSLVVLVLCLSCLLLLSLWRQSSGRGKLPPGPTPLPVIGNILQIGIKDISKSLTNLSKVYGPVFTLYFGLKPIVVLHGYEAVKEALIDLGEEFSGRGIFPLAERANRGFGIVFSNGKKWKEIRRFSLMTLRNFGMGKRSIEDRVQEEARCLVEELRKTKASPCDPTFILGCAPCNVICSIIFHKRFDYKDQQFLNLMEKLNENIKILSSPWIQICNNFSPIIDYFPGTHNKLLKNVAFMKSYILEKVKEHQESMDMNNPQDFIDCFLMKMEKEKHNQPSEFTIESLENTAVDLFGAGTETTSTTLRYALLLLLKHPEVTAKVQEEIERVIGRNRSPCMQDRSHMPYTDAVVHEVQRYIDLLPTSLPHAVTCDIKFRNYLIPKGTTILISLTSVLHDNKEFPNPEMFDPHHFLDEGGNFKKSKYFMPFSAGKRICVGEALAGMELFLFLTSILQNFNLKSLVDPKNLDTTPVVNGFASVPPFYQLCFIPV

[4] = Half life in rat at 4 mg/kg, po and 4 mg/kg, iv; assay type: ADME, organism-based; settings: in vivo
Homo sapiens = organism: Homo sapiens; assay: Protein binding in human plasma by equilibrium dialysis; settings: read-out: PPB (converted)
[5] = Bioavailability in rat at 4 mg/kg, po and 4 mg/kg, iv; assay type: ADME, organism-based; settings: in vivo

| Compound | pIC50 (Hepatitis C virus [1]) | pIC50 (Hepatitis C virus [2]) | pIC50 (Hepatitis C virus [3]) | pIC50 (Cytochrome P450 2C9) | half-life [4] | fraction unbound (Homo sapiens) | bioavailability [5] |
| --- | --- | --- | --- | --- | --- | --- | --- |
| C[C@H](Oc1ccc2c(c1)S(=O)(=O)N=C(c1c(O)c3cc(F)ccc3n(CCC3CC3)c1=O)N2)C(N)=O | 4.30 | 7.92 | 8.40 | – | – | – | – |
| O=C(O)COc1ccc2c(c1)S(=O)(=O)N=C(c1c(O)c3cc(F)ccc3n(CCC3CC3)c1=O)N2 | – | > 8.30 | 5.64 | – | – | – | – |
| CC(=O)c1ccc2c(c1)S(=O)(=O)N=C(c1c(O)c3ccccc3n(CCC(C)C)c1=O)N2 | – | 6.90 | 5.28 | – | – | – | – |
| NC(=O)/C=C/c1ccc2c(c1)S(=O)(=O)N=C(c1c(O)c3cc(F)ccc3n(CCC3CC3)c1=O)N2 | 4.30 | 6.69 | 7.41 | – | – | – | – |
| CC(C)CCn1c(=O)c(C2=NS(=O)(=O)c3cc(CC(N)=O)ccc3N2)c(O)c2cc(F)ccc21 | 5.51 | 7.74 | 7.89 | – | – | – | – |
| CC(C)CCn1c(=O)c(C2=NS(=O)(=O)c3cc(Cl)ccc3N2)c(O)c2ccccc21 | < 4.30 | 7.12 | 5.63 | – | – | – | – |
| CN(C)C(=O)COc1ccc2c(c1)S(=O)(=O)N=C(c1c(O)c3cc(F)ccc3n(CCC3CC3)c1=O)N2 | – | 7.92 | 6.68 | – | – | – | – |
| CC(C)CCn1c(=O)c(C2=NS(=O)(=O)c3cc(Br)ccc3N2)c(O)c2ccccc21 | – | 6.76 | 5.29 | – | – | – | – |
| CC(C)CCn1c(=O)c(C2=NS(=O)(=O)c3cc(CC(N)=O)ccc3N2)c(O)c2ccccc21 | 5.58 | 8.22 | 7.82 | – | – | – | – |
| CC(C)CCn1c(=O)c(C2=NS(=O)(=O)c3cc(F)ccc3N2)c(O)c2ccccc21 | – | 7.59 | 6.48 | – | – | – | – |
| CC(C)CCn1c(=O)c(C2=NS(=O)(=O)c3cc(O)ccc3N2)c(O)c2ccccc21 | – | 7.52 | < 4.70 | – | – | – | – |
| CC(C)CCn1c(=O)c(C2=NS(=O)(=O)c3cc(I)ccc3N2)c(O)c2ccccc21 | – | < 5.00 | – | – | – | – | – |
| N#CCOc1ccc2c(c1)S(=O)(=O)N=C(c1c(O)c3cc(F)ccc3n(CCC3CC3)c1=O)N2 | 5.62 | > 8.30 | 8.10 | – | – | – | – |
| NC(=O)CCc1ccc2c(c1)S(=O)(=O)N=C(c1c(O)c3cc(F)ccc3n(CCC3CC3)c1=O)N2 | < 4.30 | 8.30 | 6.68 | – | – | – | – |
| CC(C)(Oc1ccc2c(c1)S(=O)(=O)N=C(c1c(O)c3cc(F)ccc3n(CCC3CC3)c1=O)N2)C(=O)O | – | 7.66 | 5.43 | – | – | – | – |
| CC(C)(Oc1ccc2c(c1)S(=O)(=O)N=C(c1c(O)c3cc(F)ccc3n(CCC3CC3)c1=O)N2)C(N)=O | 5.27 | 8.05 | 6.57 | – | – | – | – |
| CC(C)CCn1c(=O)c(C2=NS(=O)(=O)c3cc(CCN)ccc3N2)c(O)c2ccccc21 | – | 6.85 | 6.25 | – | – | – | – |
| CC(C)CCn1c(=O)c(C2=NS(=O)(=O)c3cc(OCC#N)ccc3N2)c(O)c2ccccc21 | – | 8.15 | 7.09 | – | – | – | – |
| CC(C)CCn1c(=O)c(C2=NS(=O)(=O)c3cc(C(=O)N(C)C)ccc3N2)c(O)c2ccccc21 | – | 6.99 | < 4.70 | – | – | – | – |
| NC(=O)COc1ccc2c(c1)S(=O)(=O)NC(c1c(O)c3cc(F)ccc3n(CCC3CC3)c1=O)=N2 | 5.83 | > 8.30 | 8.70 | 5.27 | 1 h | 0.001 | 33% |
| O=c1c(C2=Nc3ccccc3S(=O)(=O)N2)c(O)c2cc(F)ccc2n1CCC1CC1 | 4.61 | – | 7.42 | 6.08 | 3 h | – | 44% |

| Compound | pIC50 (Hepatitis C virus [1]) | pIC50 (Hepatitis C virus [2]) | pIC50 (Hepatitis C virus [3]) | pIC50 (Cytochrome P450 2C9) | half-life [4] | fraction unbound (Homo sapiens) | bioavailability [5] |
| --- | --- | --- | --- | --- | --- | --- | --- |
| CC(C)CCn1c(=O)c(C2=NS(=O)(=O)c3cc(C(=O)O)ccc3N2)c(O)c2ccccc21 | – | 7.35 | < 4.70 | – | – | – | – |
| O=c1c(C2=NS(=O)(=O)c3cc(CO)ccc3N2)c(O)c2cc(F)ccc2n1CCC1CC1 | – | 7.77 | 6.63 | – | – | – | – |
| NC(=O)OCc1ccc2c(c1)S(=O)(=O)N=C(c1c(O)c3cc(F)ccc3n(CCC3CC3)c1=O)N2 | – | 7.44 | 7.32 | – | – | – | – |
| COC(=O)c1ccc2c(c1)S(=O)(=O)N=C(c1c(O)c3ccccc3n(CCC(C)C)c1=O)N2 | – | 7.19 | 5.58 | – | – | – | – |
| CC(C)CCn1c(=O)c(C2=NS(=O)(=O)c3cc(CC#N)ccc3N2)c(O)c2cc(F)ccc21 | 5.10 | 8.30 | 7.54 | – | – | – | – |
| CC(C)CCn1c(=O)c(C2=NS(=O)(=O)c3cc(N)ccc3N2)c(O)c2ccccc21 | 4.35 | 7.89 | 6.66 | – | – | – | – |
| COc1ccc2c(c1)S(=O)(=O)N=C(c1c(O)c3cc(F)ccc3n(CCC3CC3)c1=O)N2 | < 4.30 | 7.62 | 6.47 | – | – | – | – |
| Cc1ccc2c(c1)S(=O)(=O)N=C(c1c(O)c3ccccc3n(CCC(C)C)c1=O)N2 | – | 7.30 | 5.75 | – | – | – | – |
| COC(=O)Cc1ccc2c(c1)S(=O)(=O)N=C(c1c(O)c3ccccc3n(CCC(C)C)c1=O)N2 | – | 7.64 | 6.09 | – | – | – | – |
| CNC(=O)COc1ccc2c(c1)S(=O)(=O)N=C(c1c(O)c3cc(F)ccc3n(CCC3CC3)c1=O)N2 | 5.32 | > 8.30 | 8.05 | – | – | – | – |
| CC(C)CCn1c(=O)c(C2=NS(=O)(=O)c3cc(N(C)C)ccc3N2)c(O)c2ccccc21 | – | 6.85 | 5.90 | – | – | – | – |
| O=c1c(C2=NS(=O)(=O)c3cc(O)ccc3N2)c(O)c2cc(F)ccc2n1CCC1CC1 | 4.30 | > 8.30 | 7.24 | – | – | – | – |
| CC(C)CCn1c(=O)c(C2=NS(=O)(=O)c3cc([N+](=O)[O-])ccc3N2)c(O)c2ccccc21 | – | 6.62 | < 4.70 | – | – | – | – |
| C[C@@H](Oc1ccc2c(c1)S(=O)(=O)N=C(c1c(O)c3cc(F)ccc3n(CCC3CC3)c1=O)N2)C(N)=O | 5.99 | > 8.30 | 8.52 | 5.77 | 0.7 h | 0.002 | 35% |
| CC(C)CCn1c(=O)c(C2=NS(=O)(=O)c3cc(CCN(C)C)ccc3N2)c(O)c2ccccc21 | – | 6.16 | – | – | – | – | – |
| COc1ccc2c(c1)S(=O)(=O)N=C(c1c(O)c3ccccc3n(CCC(C)C)c1=O)N2 | – | 7.26 | 5.86 | – | – | – | – |
| CC(C)CCn1c(=O)c(C2=NS(=O)(=O)c3cc(C(N)=O)ccc3N2)c(O)c2ccccc21 | – | 8.22 | 6.42 | – | – | – | – |
| O=c1c(C2=NS(=O)(=O)c3cc(OCn4cnnn4)ccc3N2)c(O)c2cc(F)ccc2n1CCC1CC1 | – | 8.22 | 5.70 | – | – | – | – |
| CC(C)CCn1c(=O)c(C2=NS(=O)(=O)c3cc(C#N)ccc3N2)c(O)c2ccccc21 | – | 7.24 | 6.31 | – | – | – | – |
| CC(C)CCn1c(=O)c(C2=NS(=O)(=O)c3cc(CC(=O)O)ccc3N2)c(O)c2ccccc21 | – | 8.10 | 5.79 | – | – | – | – |
